Measured values reported in patent US5532258A, “H2 -receptor antagonist thiazoles” (Fujisawa Pharmaceutical Co., Ltd., priority 1991, dated 1996).

Assays:
Gastric secretion [1] = assay: Test C (Gastric secretion from lumen perfused stomach in anesthetized rats); format: in vivo, Male Sprague-Dawley rats; settings: 1 mg/kg intravenously, histamine (3 mg/kg/hr) i.v. stimulation
Procedure: Test C (Gastric secretion from lumen perfused stomach in anesthetized rats):
Male Sprague-Dawley rats weighing about 250 g were used. Rats were deprived of food but allowed free access to water for 24 hours. The animals were anesthteized with 1.25 g/kg urethane intraperitoneally. The abdomen was opened and the gastric lumen was perfused with saline throughout the experiment. The perfusate was titrated continuously against 25 mM sodium hydroxide to maintain the perfusate solution at pH 7.0. Gastric secretion was stimulated by intravenous infusion with histamine (3 mg/kg/hr). After reaching plateau, test compound (1 mg/kg) was given intravenously at a volume of 2 ml/kg. Effect of drug was expressed as maximal inhibition of acid output calculated by the amount of sodium hydroxide required.

Gastric secretion [2] = assay: Test A (Gastric secretion in Heidenhain pouch dogs); format: in vivo, Beagle dogs; settings: 3.2 mg/kg orally, tetragastrin (10 μg/kg/hr) i.v. stimulation, 3 hours
Procedure: Test A (Gastric secretion in Heidenhain pouch dogs):
Beagle dogs, weighing about 8-13 kg, were used for the study on gastric secretion. The animals were surgically provided with a vagally denervated Heidenhain pouch. One month or more later, the dogs were fasted overnight. Gastric secretion was stimulated by an intravenous infusion of tetragastrin (10 μg/kg/hr). Gastric juice was collected at 15 minutes intervals. After the secretion plateau had been established, test compound (3.2 mg/kg) suspended in 0.1% methyl cellulose solution was administered orally. Gastric juice was collected at 15 minutes intervals over 3 hours period. Acid concentration was determined by titrating an aliquot against 0.1N sodium hydroxide using automatic titrator (Hiranuma RAT-11 Type). Total acid output was calculated by multiplying the volume of gastric juice by acid concentration, and percentage inhibition was calculated by comparing total acid output before adminstration of test compound with that after administration of test compound.

stress ulcer = assay: Test B (Inhibition of stress ulcer); format: in vivo, male Sprague-Dawley rats; settings: rats; 32 mg/kg orally just before stress; restraint in water bath 22° C. for 7 hours; vs control group
Procedure: Test B (Inhibition of stress ulcer):
Five male Sprague-Dawley rats, aged 7 weeks, were fasted but allowed free access to water for 24 hours. Animals were placed in a restraint cage and immersed to a level of the xiphoid in a water bath kept 22° C. for 7 hours. Each of the test compounds (32 mg/kg) suspended in 0.1% methylcellulose solution was administered orally just before the stress subjection. Animals were sacrificed and stomachs were removed. After fixing with 2% formalin, stomachs were opened along the greater curvature and area of ulcers was measured. Percentage inhibition was calculated by comparing the mean area of ulcers (mm^2) in the test group with that in the control group.

## NC(=O)NCc1cccc(-c2csc(N=C(N)N)n2)c1 [Test Compound (a), 4-(3-Ureidomethylphenyl)-2-(diaminomethyleneamino)thiazole]
Gastric secretion [1]
  Inhibition (%), maximal inhibition of acid output: 99%

## CNC(N)=Nc1nc(-c2cccc(CNC(C)=O)c2)cs1 [Test Compound (b), 4-(3-Acetylaminomethylphenyl)-2-[[(amino)(methylamino)methylene]amino]thiazole]
Gastric secretion [2]
  Inhibition (%) of total acid output: 88.1%

## CCNC(N)=Nc1nc(-c2cccc(CNC(C)=O)c2)cs1 [Test Compound (c), 4-(3-Acetylaminomethylphenyl)-2-[[(amino)(ethylamino)methylene]amino]thiazole]
Stress ulcer
  Inhibition (%) of area of ulcers: 88.1%
